Results from patent US8354502B2, “Bioactive peptides identified in enzymatic hydrolyzates of milk caseins and method of obtaining same” (Consejo Superior de Investigaciones Cientificas, priority 2005, dated 2013).
Like-named read-outs stand apart in the source and are kept apart here. Where a SMILES comes first, the peptide text is derived from it. Where no end group is shown, it is not given here.

What was measured:
[1] = tested on: Listeria innocua CECT 910T; experiment: Antimicrobial activity (colony count after 2 h incubation); type: cell-based; conditions: synthetic peptide 0.05 mM
Protocol: (§1) The antimicrobial activity is determined in accordance with the method of A. Pellegrini, C. Deltting, U. Thomas, P. Hunziker (Isolation and characterization of four bactericidal domains in the bovine β-lactoglobulin Biochimica et Biophysica Acta, 2001, 1526:131-140) using as microorganisms Escherichia coli [American Type Culture Collection (ATCC), Rockville, Md., USA] ATCC 25922, Listeria innocua [Colección Española de Cultivos Tipo (CECT) Valencia, Spain] CECT 910T, Staphylococcus epidermidis CECT 231, Enterococcus faecalis CECT 795, Serratia marcescens CECT 854 and Staphylococcus carnosus CECT 4491T.
(§2) The bacterial suspensions are inoculated at 1% in the Tryptose Soy Broth (TSB) for Escherichia coli, Serratia marcescens and the strains of the Staphylococcus genus, or in the brain-heart infusion (BHI) broth for Enterococcus faecalis and Listeria innocua. The incubation is carried out at 37° C., except in the case of Serratia marcescens, which is at 30° C.
(§3) The bacterial innoculum, from which the work is begun, is obtained after incubating a colony grown in TSB-Agar or BHI-Agar in 10 mL of TSB or BHI overnight at 37a or 30° C. The bacterial suspension (1 mL) is diluted 1/50 with the corresponding culture medium, being incubated at the appropriate temperature for each strain up to achieving a population density of 1-4×10^8 colony-forming units (CFU) per mL. The culture is centrifuged at 2000×g for 10 minutes, the sedimented bacteria are washed twice with 15 mL phosphate buffer (pH 7.4) and the population is adjusted to 10^6 CFU/mL. On a sterile multi-well plate (Greiner Labortechnik, Frickenhausen, Germany), 50 μL of the bacterial suspension, 50 μL of the substance to be tested and 100 μL of the phosphate buffer are mixed with 2% of the appropriate culture medium in each case, and the mixture is incubated at 37° C. or 30° C. for 2 hours. After this time, the mixture is diluted to 10^−5, 100 μL of each one of the dilutions are added to TSB-Agar or BHI-Agar plates and the plates are incubated for 24 hours, after which time the colony count is taken.
(§4) The following equation is used for calculating the antimicrobial activity:
(§5) [formula] [formula] [formula] Measurement of the Angiotensin-Converting Enzyme Inhibitory Activity (ACEIa)

[2] = tested on: Escherichia coli ATCC 25922; experiment: as above; type: cell-based; conditions: synthetic peptide 0.05 mM
Protocol: as §1, §2, §3, §4, §5

[3] = tested on: Enterococcus faecalis CECT 795; experiment: as above; type: cell-based; conditions: synthetic peptide 0.05 mM
Protocol: as §1, §2, §3, §4, §5

[4] = tested on: Staphylococcus epidermidis CECT 231; experiment: as above; type: cell-based; conditions: synthetic peptide 0.05 mM
Protocol: as §1, §2, §3, §4, §5

[5] = tested on: Staphylococcus carnosus CECT 4491T; experiment: as above; type: cell-based; conditions: synthetic peptide 0.05 mM
Protocol: as §1, §2, §3, §4, §5

[6] = tested on: Serratia marcescens CECT 854; experiment: as above; type: cell-based; conditions: synthetic peptide 0.05 mM
Protocol: as §1, §2, §3, §4, §5

[7] = target: T1, angiotensin-converting enzyme (ACE) (Oryctolagus cuniculus, UniProt P12822); conditions: peptides from Manchego cheese, Gómez-Ruiz et al. 2004; read-out: ACE-inhibitory activity IC50; cited from earlier work
T1 sequence (P12822 34-1310): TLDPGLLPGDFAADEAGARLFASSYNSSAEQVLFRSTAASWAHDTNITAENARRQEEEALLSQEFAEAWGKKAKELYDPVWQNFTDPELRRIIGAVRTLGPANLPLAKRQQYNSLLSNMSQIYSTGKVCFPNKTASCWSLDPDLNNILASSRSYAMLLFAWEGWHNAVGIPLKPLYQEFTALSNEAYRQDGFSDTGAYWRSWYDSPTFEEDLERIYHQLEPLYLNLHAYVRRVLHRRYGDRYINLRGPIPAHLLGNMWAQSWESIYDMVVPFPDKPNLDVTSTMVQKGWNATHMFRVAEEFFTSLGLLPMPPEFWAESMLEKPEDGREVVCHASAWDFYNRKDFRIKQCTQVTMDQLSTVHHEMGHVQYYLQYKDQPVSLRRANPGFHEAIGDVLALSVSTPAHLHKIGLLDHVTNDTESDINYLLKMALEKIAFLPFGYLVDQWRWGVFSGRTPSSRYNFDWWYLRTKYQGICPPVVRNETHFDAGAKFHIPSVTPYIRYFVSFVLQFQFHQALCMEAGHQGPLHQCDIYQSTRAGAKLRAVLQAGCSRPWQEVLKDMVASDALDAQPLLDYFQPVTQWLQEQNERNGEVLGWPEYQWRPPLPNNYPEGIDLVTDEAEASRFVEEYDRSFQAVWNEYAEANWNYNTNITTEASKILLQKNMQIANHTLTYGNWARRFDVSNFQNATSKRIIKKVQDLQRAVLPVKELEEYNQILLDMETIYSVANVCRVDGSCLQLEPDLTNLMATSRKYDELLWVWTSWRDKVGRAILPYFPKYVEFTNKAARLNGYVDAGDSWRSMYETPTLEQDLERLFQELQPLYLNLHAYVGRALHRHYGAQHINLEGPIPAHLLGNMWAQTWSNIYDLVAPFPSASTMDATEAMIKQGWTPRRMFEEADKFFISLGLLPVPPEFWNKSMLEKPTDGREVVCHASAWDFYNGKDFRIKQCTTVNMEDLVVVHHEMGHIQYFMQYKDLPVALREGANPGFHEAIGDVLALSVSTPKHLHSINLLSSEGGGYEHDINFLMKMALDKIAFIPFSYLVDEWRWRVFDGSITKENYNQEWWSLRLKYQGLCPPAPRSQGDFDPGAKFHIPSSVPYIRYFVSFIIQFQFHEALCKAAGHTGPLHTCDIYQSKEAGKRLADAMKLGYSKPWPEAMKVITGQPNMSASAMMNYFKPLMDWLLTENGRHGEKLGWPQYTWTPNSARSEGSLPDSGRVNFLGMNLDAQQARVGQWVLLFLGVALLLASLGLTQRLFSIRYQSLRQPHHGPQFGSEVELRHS

[8] = target: T1, angiotensin-converting enzyme (ACE); experiment: Angiotensin-converting enzyme inhibitory activity (ACEIa) in vitro; type: biochemical
Protocol: The ACE-inhibitory activity is measured in vitro by the method of D. W. Cushman and H. S. Cheung (Spectrophotometric assay and properties of angiotensin-converting enzyme in rabbit lung. Biochemical Pharmacology, 1971, 20:1637-1648) later modified by […]. Yoon, D. Y. Yu, […]. Chung (Novel angiotensin-1-converting enzyme inhibitory peptides derived from recombinant human αs1-casein expressed in Escherichia coli. Journal of Dairy Research 1999, 66,431-439). The substrate, […], Sigma, Chemical Co, St. Louis, Mo., USA), is dissolved in 0.1 M borate buffer with 0.3 M NaCl, pH 8.3, to obtain a final concentration of 5 mM. 40 μL of each one of the samples whose ACE-inhibitory activity is to be assayed are added to 100 μL of substrate. The ACE enzyme ([…], Sigma) is added, dissolved in 50% glycerol and diluted at the point in time of performing the test in 1/10 bidistilled water. The reaction is carried out at 37° C. for 30 minutes in water bath. The enzyme is inactivated by reducing the pH with 150 μl HCL 1N. The hipuric acid formed is extracted with 1000 μL ethyl acetate. Following agitation in vortex for 20 seconds, it is centrifuged at 3000×g for 10 minutes at ambient temperature. 750 μL are taken from the organic phase that is heat-evaporated at 95° C. for 10 minutes. The hipuric acid residue is re-dissolved in 800 μL bidistilled water and, after agitating for 20 seconds, the absorbance at 228 nm is measured in a Dur-70 spectrophotometer from Beckman Instruments, Inc., Fullerton, USA. The following equation is used for calculating the percentage of ACE-inhibitory activity: [formula] The blank is used to correct the background absorbance. This blank contains substrate, enzyme and 20 μL bidistilled water instead of sample, and the reaction is halted at time zero. The control entailed one hundred percent of the enzymatic action on the substrate in absence of inhibitors and contains […] of water instead of sample and is incubated for the same length of time as the sample. The results are shown as IC50 (μM) or concentration at which the activity of the enzyme is inhibited by 50%. The protein concentration is determined by means of the bicinchoninic acid test (Pierce-Rockord, Ill., USA), using bovine seroalbumin as a pattern.

[9] = tested on: spontaneously hypertensive rats (SHR); experiment: Antihypertensive activity in spontaneously hypertensive rats (SHR), tail cuff SBP and DBP; type: in vivo, rat; conditions: 2 mg/kg, intragastric catheter
Protocol: The effect of several of the peptides identified on the blood pressure of spontaneously hypertensive rats (SHR) is studied. The peptides are chemically synthesized for this study.
The study is conducted with male SHR rats 17-20 weeks of age weighing 300 to 350 g, from Charles River Laboratories España S. A. The rats are kept in cages, five per cage, maintaining a stable temperature of 25° C., with 12-hour light-darkness cycles, taking water and food ad libitum. […] The SBP and DBP values are determined by taking 3 consecutive measurements and calculating the average of the three values for each one of these two variables. […]
The products to be tested are administered by means of an intragastric catheter within a time span ranging from 9 a.m. to 10 a.m., and the dosage tested is administered dissolved in 1 ml of distilled water. SBP and DBP readings are taken prior to the administration, and periodic measurements of these variables are also made every 2 hours following the administration, up to 8 hours post-administration. […]
The results are grouped and the ±average of the standard error of the measurement (SEM) for a minimum of 6 homogeneous tests is calculated. […]

[10] = read-out: ACE-inhibitory activity CI50, synthetic peptides of FC1 and FD1 subfractions

Compound	Antimicrobial activity L. innocua [1]	Antimicrobial activity E. coli [2]	Antimicrobial activity E. faecalis [3]	Antimicrobial activity S. epidermidis [4]	Antimicrobial activity S. carnosus [5]	antimicrobial activity against S. carnosus (in words) [5]	Antimicrobial activity S. marcescens [6]	other results
VDQHQKAMKPWTQPKTNAIPYVRYL (Derived from casein) [SEQ. ID. No. 2, ovine αs2-casein fragment 184-208]	1.71	0.07	0	0.61	>6	bactericidal activity	0	
VRYL [SEQ. ID. No. 11, previously identified 205-208 fragment of ovine αs2-casein from Manchego cheese]								IC50 [7]: 24.1 µM
PYVRYL [SEQ. ID. No. 7, PYVRYL]								IC50 [8, 10]: 1.94 µM
LKKISQYYQKFAWPQYL (Derived from casein) [SEQ. ID. No. 3, ovine αs2-casein fragment 165-181]	>6	4.63	3.32	>6	>6	bactericidal activity	0.38	antimicrobial activity against E. coli (in words) [2]: high degree of antimicrobial activity
HLPLPLL [SEQ. ID. No. 14, HLPLPLL]								IC50 ([8]; synthetic peptides of bovine casein permeate fractions, read-out: ACE-inhibitory activity CI50): 34.2 µM
LKKISQ [SEQ. ID. No. 1, LKKISQ]	1.11	0.33	0	3.6	>6	bactericidal activity	0	ACE-inhibitory activity (in words) [8]: potent ACE-inhibitory activity; IC50 [8, 10]: 2.1 µM
AYFYPEL [SEQ. ID. No. 13, AYFYPEL]								IC50 ([8]; read-out: ACE-inhibitory activity CI50, synthetic peptides of bovine casein permeate fractions): 7.5 µM
CC(C)[C@H](NC(=O)[C@H](Cc1ccc(O)cc1)NC(=O)[C@@H]1CCCN1)C(=O)O [SEQ. ID. No. 15, PYV] (H-Pro-Tyr-Val-OH; N-terminus and C-terminus assumed)								lowering of the SBP and DBP [9]: significant lowering of the SBP and DBP; time of peak effect on the SBP after administration [9]: 2 h; IC50 ([8]; synthetic peptides resulting from simulated gastrointestinal digestion, read-out: ACE-inhibitory activity IC50): 741 µM; times less ACE-inhibitory activity than the starting peptide ([8]; versus PYVRYL): 370 times
